Assay results taken from US20260001914A1, “MACROCYCLIC PEPTIDES TARGETING KRAS” (Merck Sharp & Dohme LLC, priority 2022, published 2026).
*1 amine or outer side, *2 acyl side, *3 side chain or, on linkers, in order; H or OH if unused. Where a SMILES comes first, the peptide text is derived from it. Bridges are numbered along the chain shown (N, C = ends). [ ]: non-standard residue; d: D form. NMeNva(5-imidazol-1-yl) = CN[C@@H](CCCn1ccnc1)C(=O)O; Phe(4-guanidino) = N=C(N)Nc1ccc(C[C@H](N)C(=O)O)cc1; X18 = CNC(=N)N(C)c1ccc(C[C@H](N[*:1])C(=O)[*:2])cc1; Ala(pyrimidin-5-yl) = N[C@@H](Cc1cncnc1)C(=O)O; X29 = CC(=O)N(C)CCC[C@@H](C(=O)[*:2])N(C)[*:1]; NMe3Pal(6-Me) = CN[C@@H](Cc1ccc(C)nc1)C(=O)O; X43 = CN([C@@H](Cc1cnccc1F)C(=O)[*:2])[*:1]; X42 = O=C([C@H](Cc1cc(F)ncc1F)N[*:1])[*:2]; 3Pal(6-OMe) = COc1ccc(C[C@H](N)C(=O)O)cn1; Lys(N3) = [N-]=[N+]=NCCCC[C@H](N)C(=O)O; X15 = O=C([C@H](Cc1cnccc1F)N[*:1])[*:2]; Nle(5,5-F2) = CC(F)(F)CC[C@H](N)C(=O)O; X28 = O=C([C@H](Cc1ncccn1)N[*:1])[*:2]; X21 = O=C([C@@H]1C[C@H]1CN[*:1])[*:2]; X47 = O=C([C@H](Cc1ccoc1)N[*:1])[*:2]; Phe(2-F) = N[C@@H](Cc1ccccc1F)C(=O)O; Abu(4,4-F2) = N[C@@H](CC(F)F)C(=O)O; NMe3Pal = CN[C@@H](Cc1cccnc1)C(=O)O; X1 = O=C(C12CC(CN[*:1])(C1)C2)[*:2]; X17 = O=C([C@H](CCCCF)N[*:1])[*:2]; NMeOrn(Me) = CNCCC[C@H](NC)C(=O)O; NMeR = CN[C@@H](CCCNC(=N)N)C(=O)O; Ala(cPr) = N[C@@H](CC1CC1)C(=O)O; NMeF = CN[C@@H](Cc1ccccc1)C(=O)O; PhLac = O=C(O)[C@@H](O)Cc1ccccc1; 3Pal = N[C@@H](Cc1cccnc1)C(=O)O; Ahp(2) = CCCCC[C@H](N)C(=O)O; Cba = N[C@@H](CC1CCC1)C(=O)O; hLeu = CC(C)CC[C@H](N)C(=O)O; NMeS = CN[C@@H](CO)C(=O)O; αMeC = C[C@](N)(CS)C(=O)O; NMeA = CN[C@@H](C)C(=O)O; Nle = CCCC[C@H](N)C(=O)O; Nva = CCC[C@H](N)C(=O)O

target: KRAS-G12D protein (Homo sapiens, UniProt P01116, G12D); test: SOS-mediated nucleotide exchange assay (BODIPY-GDP / Tb-streptavidin TR-FRET); type: biochemical
Sequence (P01116 1-188 isoform P01116-2 G12D): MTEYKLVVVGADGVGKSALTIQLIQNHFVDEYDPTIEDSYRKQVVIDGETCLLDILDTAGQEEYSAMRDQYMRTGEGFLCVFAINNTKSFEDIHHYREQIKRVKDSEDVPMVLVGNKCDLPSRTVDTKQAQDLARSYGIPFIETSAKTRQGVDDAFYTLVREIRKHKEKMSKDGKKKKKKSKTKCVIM

SMILES	EC50 [nM]
CCCC[C@@H]1NC(=O)[C@H](Cc2ccc(OC)cc2)NC(=O)[C@H](CC(C)C)NC(=O)[C@H](Cc2ccc(NC(=N)N)cc2)NC(=O)[C@H](CCC)NC(=O)[C@H](Cc2ccccc2)NC(=O)CSC[C@H](C(N)=O)NC(=O)[C@H](Cc2ccccc2)N(C)C1=O [compound 48, cyclo(F-Nva-Phe4Gn-L-TyrOMe-Nle-NMeF-dCl-ClAc)] ({CH2CO}-F[Nva][Phe(4-guanidino)]LY(Me)[Nle][NMeF][dC]-NH2; thioether N-8)	4320
C[C@H]1C(=O)N[C@@H](Cc2cncnc2)C(=O)N[C@@H](CC2CC2)C(=O)N[C@@H](Cc2ccccc2F)C(=O)N[C@@H](CC(F)F)C(=O)N(C)[C@@H](Cc2ccccc2)C(=O)NCC23CC(C2)(C3)C(=O)O[C@@H](Cc2ccccc2)C(=O)N1C [compound 271, cyclo(FLac-NMeA-PyrimAla-cPrA-Phe2F-AbuF2-NMeF-amBCP)] (cyclo([Ala(cPr)][Phe(2-F)][Abu(4,4-F2)][NMeF][X1][PhLac][NMeA][Ala(pyrimidin-5-yl)]))	730
CCC[C@@H]1NC(=O)[C@H](Cc2ccc(O)cc2)NC(=O)[C@H](CC(C)C)NC(=O)[C@H](Cc2ccc(O)cc2)NC(=O)[C@H](CCCNC(=N)N)NC(=O)[C@H](Cc2ccccc2)NC(=O)CSC[C@@H](C(N)=O)NC(=O)[C@H](Cc2ccccc2)N(C)C1=O [compound 16, cyclo(F-R-Y-L-Y-Nva-NMeF-Cl-ClAc)]	3620
COc1ccc(C[C@@H]2NC(=O)[C@H](CC3CCC3)NC(=O)[C@H](Cc3cccnc3)NC(=O)[C@H](CCCNC(=N)N)NC(=O)[C@H](Cc3ccccc3)NC(=O)CSC[C@](C)(C(N)=O)NC(=O)[C@@H]3CCCCCCCC[C@H](NC2=O)C(=O)N3C)cc1 [SEQ ID NO: 193, cyclo(F-R-3Pal-cBuA-TyrOMe-AheNMeAhe-aMeC-C1Ac)]	900
CCCC[C@@H]1NC(=O)[C@H](Cc2cccnc2)NC(=O)[C@H](CCCNC(=N)N)NC(=O)[C@H](Cc2ccccc2)OC(=O)C23CC(CNC(=O)[C@H](Cc4ccccc4)N(C)C(=O)[C@H](CCCC)NC(=O)[C@H](Cc4ccccc4F)NC1=O)(C2)C3 [compound 212, cyclo(FLac-R-3Pal-Nle-Phe2F-Nle-NMeF-amBCP)] (cyclo([PhLac]R[3Pal][Nle][Phe(2-F)][Nle][NMeF][X1]))	20.7
CCCC[C@@H]1NC(=O)[C@H](Cc2ccccc2F)NC(=O)[C@H](CCCCF)NC(=O)[C@H](Cc2cncnc2)NC(=O)[C@H](C)N(C)C(=O)[C@H](Cc2ccccc2)OC(=O)C23CC(CNC(=O)[C@H](Cc4ccccc4)N(C)C1=O)(C2)C3 [compound 130, cyclo(FLac-NMeA-PyrimAla-NleF-Phe2F-Nle-NMeF-amBCP)] (cyclo([NMeA][Ala(pyrimidin-5-yl)][X17][Phe(2-F)][Nle][NMeF][X1][PhLac]))	2.43
CC(C)CC[C@@H]1NC(=O)[C@H](Cc2ccccc2F)NC(=O)[C@H](CC2CC2)NC(=O)[C@H](Cc2ncccn2)NC(=O)[C@H](C)N(C)C(=O)[C@H](Cc2ccccc2)OC(=O)C23CC(CNC(=O)[C@H](Cc4ccccc4)N(C)C1=O)(C2)C3 [compound 281, cyclo(FLac-NMeA-2PyrimAla-cPrA-Phe2F-hL-NMeF-amBCP)] (cyclo([Ala(cPr)][Phe(2-F)][hLeu][NMeF][X1][PhLac][NMeA][X28]))	1210
CCCC[C@@H]1NC(=O)[C@H](Cc2cccnc2)NC(=O)[C@H](CO)N(C)C(=O)[C@H](Cc2ccccc2)OC(=O)C23CC(CNC(=O)[C@H](Cc4cccnc4)N(C)C(=O)[C@H](CCCC)NC(=O)[C@H](Cc4ccccc4F)NC1=O)(C2)C3 [compound 118, cyclo(FLac-NMeS-3Pal-Nle-Phe2F-Nle-NMe3Pal-amBCP)] (cyclo([3Pal][Nle][Phe(2-F)][Nle][NMe3Pal][X1][PhLac][NMeS]))	466
CC(C)CC[C@@H]1NC(=O)[C@H](Cc2ccccc2F)NC(=O)[C@H](CC2CC2)NC(=O)[C@H](Cc2cncnc2)NC(=O)[C@H](C)N(C)C(=O)[C@H](Cc2ccccc2)OC(=O)C23CC(CNC(=O)[C@H](Cc4cnccc4F)N(C)C1=O)(C2)C3 [compound 338, cyclo(FLac-NMeA-PyrimAla-cPrA-Phe2F-hL-NMe3Pal6F-amBCP)] (cyclo([Ala(cPr)][Phe(2-F)][hLeu][X43][X1][PhLac][NMeA][Ala(pyrimidin-5-yl)]))	2
CC(C)CC[C@@H]1NC(=O)[C@H](Cc2cnccc2F)NC(=O)[C@H](CC2CC2)NC(=O)[C@H](Cc2cncnc2)NC(=O)[C@H](C)N(C)C(=O)[C@H](Cc2ccccc2)OC(=O)C23CC(CNC(=O)[C@H](Cc4ccccc4)N(C)C1=O)(C2)C3 [compound 213, cyclo(FLac-NMcA-PyrimAla-cPrA-3Pal6F-hL-NMeF-amBCP)] (cyclo([Ala(cPr)][X15][hLeu][NMeF][X1][PhLac][NMeA][Ala(pyrimidin-5-yl)]))	3.72
CCCCC[C@@H]1NC(=O)[C@H](Cc2ccc(OC)cc2)NC(=O)[C@H](CC2CCC2)NC(=O)[C@H](Cc2ccc(OC)nc2)NC(=O)[C@H](CCCNC(=N)N)NC(=O)[C@H](Cc2ccccc2)NC(=O)CSC[C@@](C)(C(N)=O)NC(=O)[C@H](Cc2ccccc2)N(C)C1=O [compound 365, cyclo(F-R-40Me3Pal-cBuA-TyrOMe-Ahp-NMeF-aMeCl-ClAc)] ({CH2CO}-FR[3Pal(6-OMe)][Cba]Y(Me)[Ahp(2)][NMeF][αMeC]-NH2; thioether N-8)	50.3
CCCC[C@@H]1NC(=O)[C@H](Cc2cccnc2)NC(=O)[C@H](CCCn2ccnc2)N(C)C(=O)[C@H](Cc2ccccc2)NC(=O)[C@@H]2C[C@H]2CNC(=O)[C@H](Cc2cccnc2)N(C)C(=O)[C@H](CCCC)NC(=O)[C@H](Cc2ccccc2F)NC1=O [compound 251, cyclo(F-NMeNvalmid-3Pal-Nle-Phe2F-Nle-NMe3Pal-tamcPr)] (cyclo(F[NMeNva(5-imidazol-1-yl)][3Pal][Nle][Phe(2-F)][Nle][NMe3Pal][X21]))	272
CC(C)CC[C@@H]1NC(=O)[C@H](Cc2cc(F)ncc2F)NC(=O)[C@H](CC2CC2)NC(=O)[C@H](Cc2cncnc2)NC(=O)[C@H](C)N(C)C(=O)[C@H](Cc2ccccc2)OC(=O)C23CC(CNC(=O)[C@H](Cc4ccccc4)N(C)C1=O)(C2)C3 [compound 280, cyclo(FLac-NMcA-PyrimAla-cPrA-4Pal25F2-hL-NMeF-amBCP)] (cyclo([Ala(cPr)][X42][hLeu][NMeF][X1][PhLac][NMeA][Ala(pyrimidin-5-yl)]))	4
CCCCC[C@@H]1NC(=O)[C@H](Cc2ccc(OC)cc2)NC(=O)[C@H](CC2CCC2)NC(=O)[C@H](Cc2ccc(-c3cccnc3N)cc2)NC(=O)[C@H](CCCNC(=N)N)NC(=O)[C@H](Cc2ccccc2)NC(=O)CSC[C@@](C)(C(N)=O)NC(=O)[C@H](Cc2ccccc2)N(C)C1=O [compound 390, cyclo(F-R-Phe43PyNH2-cBuA-TyrOMe-Ahp-NMeF-aMeCl-ClAc)]	9.17
CCCC[C@@H]1NC(=O)[C@H](Cc2cccnc2)NC(=O)[C@H](CCCN(C)C(C)=O)N(C)C(=O)[C@H](Cc2ccccc2)OC(=O)C23CC(CNC(=O)[C@H](Cc4cccnc4)N(C)C(=O)[C@H](CCCC)NC(=O)[C@H](Cc4ccccc4F)NC1=O)(C2)C3 [compound 405, cyclo(FLac-NMeOrnAc-3Pal-Nle-Phe2F-Nle-NMe3Pal-amBCP)] (cyclo([3Pal][Nle][Phe(2-F)][Nle][NMe3Pal][X1][PhLac][X29]))	50
CCCCC[C@@H]1NC(=O)[C@H](Cc2ccoc2)NC(=O)[C@H](CC2CCC2)NC(=O)[C@H](Cc2cccnc2)NC(=O)[C@H](CCCNC(=N)N)NC(=O)[C@H](Cc2ccccc2)NC(=O)CSC[C@@](C)(C(N)=O)NC(=O)[C@H](Cc2ccccc2)N(C)C1=O [compound 374, cyclo(F-R-3Pal-cBuA-Ala3Fur-Ahp-NMeF-aMeCl-ClAc)] ({CH2CO}-FR[3Pal][Cba][X47][Ahp(2)][NMeF][αMeC]-NH2; thioether N-8)	69.8
C[C@H]1C(=O)N[C@@H](Cc2cccnc2)C(=O)N[C@@H](CC2CC2)C(=O)N[C@@H](Cc2ccccc2F)C(=O)N[C@@H](CCC(C)(F)F)C(=O)N(C)[C@@H](Cc2ccccc2)C(=O)NCC23CC(C2)(C3)C(=O)O[C@@H](Cc2ccccc2)C(=O)N1C [compound 289, cyclo(FLac-NMeA-3Pal-cPrA-Phe2F-Nle3F2-NMeF-amBCP)] (cyclo([3Pal][Ala(cPr)][Phe(2-F)][Nle(5,5-F2)][NMeF][X1][PhLac][NMeA]))	9
CCCCC[C@@H]1NC(=O)[C@H](Cc2ccc(OC)cc2)NC(=O)[C@H](CC2CCC2)NC(=O)[C@H](Cc2ccc(N(C)C(=N)NC)cc2)NC(=O)[C@H](CCCNC)N(C)C(=O)[C@H](Cc2ccccc2)NC(=O)CSC[C@@](C)(C(N)=O)NC(=O)[C@H](Cc2ccc(C)nc2)N(C)C1=O [compound 395, cyclo(F-NMeOmMe-Phe4GnMeMe-cBuA-TyrOMe-Ahp-NMe3Pal4Me-aMeCl-ClAc)] ({CH2CO}-F[NMeOrn(Me)][X18][Cba]Y(Me)[Ahp(2)][NMe3Pal(6-Me)][αMeC]-NH2; thioether N-8)	16
CCCC[C@@H]1NC(=O)[C@H](Cc2cccnc2)NC(=O)[C@H](C)N(C)C(=O)[C@H](Cc2cccnc2)NC(=O)C23CC(CNC(=O)[C@H](Cc4cccnc4)N(C)C(=O)[C@H](CCCC)NC(=O)[C@H](Cc4ccccc4F)NC1=O)(C2)C3 [compound 163, cyclo(3Pal-NMeA-3Pal-Nle-Phe2F-Nle-NMe3Pal-amBCP)] (cyclo([3Pal][NMeA][3Pal][Nle][Phe(2-F)][Nle][NMe3Pal][X1]))	3060
CCCC[C@@H]1NC(=O)[C@H](Cc2ccccc2)NC(=O)[C@H](C)N(C)C(=O)[C@H](Cc2ccccc2)OC(=O)C23CC(CNC(=O)[C@H](Cc4ccccc4)N(C)C(=O)[C@H](CCCC)NC(=O)[C@H](Cc4ccccc4F)NC1=O)(C2)C3 [compound 305, cyclo(FLac-NMeA-F-Nle-Phe2F-Nle-NMeF-amBCP)] (cyclo(F[Nle][Phe(2-F)][Nle][NMeF][X1][PhLac][NMeA]))	1790
CCCC[C@@H]1NC(=O)[C@H](Cc2cccnc2)NC(=O)[C@H](CCCNC(=N)N)N(C)C(=O)[C@H](Cc2ccccc2)NC(=O)[C@@H]2C[C@H]2CNC(=O)[C@H](Cc2ccccc2)N(C)C(=O)[C@H](CCCCN=[N+]=[N-])NC(=O)[C@H](Cc2ccc(OC)cc2)NC1=O [compound 94, cyclo(F-NMeR-3Pal-Nle-TyrOMe-LysN3-NMeF-tamcPr)] (cyclo(F[NMeR][3Pal][Nle]Y(Me)[Lys(N3)][NMeF][X21]))	224
